Data from patent US9034792B2, “Antifungal compositions” (DSM IP ASSETS B.V., priority 2011, dated 2015).
Several values for one entry are separate records, joined by “and”; a condition that tells them apart may be missing. Equal values may be shown once.

What was measured:
Type in all cases: in vivo
Fusarium proliferatum = experiment: Treatment of wounded bananas inoculated with Fusarium proliferatum; details: 20° C.
Procedure: Four organic, unripe (green) bananas were used per treatment. The peel of each banana was wounded thrice using a cork borer according to the method described by de Lapeyre de Bellaire and Dubois (1987). Subsequently, each wound was inoculated with 15 μl of a Fusarium proliferatum suspension containing 1×10^5 of spores/ml. […] In addition, the antifungal compositions comprised 1.00% (w/w) methylhydroxyethylcellulose (MHEC), 0.40% (w/w) xanthan gum, 0.20% (w/w) anti-foaming agent, 0.30% (w/w) citric acid, 0.39% (w/w) lactic acid and 0.11% (w/w) potassium sorbate. The pH of the compositions was 4. […] The treated, unripe bananas were incubated in a closed box in the dark at 20° C. and a relative air humidity of 95%, which was obtained in the presence of a saturated Na2HPO4 aqueous solution. During the first 10 days of incubation, a ripe (yellow) banana was included in the closed box to elevate the ethylene gas level and thus induce ripening of the treated, unripe bananas.
(§1) The expected antifungal activity (E in %) of the combined antifungal composition comprising both active ingredients was calculated according to the Colby equation (Colby, 1967): E=X+Y−[(X·Y)/100] wherein X and Y are the observed antifungal activities (in %) of the individual active ingredients X and Y, respectively. If the observed antifungal activity (O in %) of the combination exceeds the expected antifungal activity (E in %) of the combination and the synergy factor O/E is thus >1.0, the combined application of the active ingredients leads to a synergistic antifungal effect.
The degree of mould growth on the banana wounds was assessed according to the two methods described in Example 3.

Penicillium italicum = experiment: Treatment of wounded mandarins inoculated with Penicillium italicum; details: 20° C., 250 ppm natamycin
Procedure: Ten fresh, organic mandarins were used per treatment. The peel of each mandarin was wounded once using a cork borer according to the method described by de Lapeyre de Bellaire and Dubois (1987). Subsequently, each wound was inoculated with 10 μl of a Penicillium italicum suspension containing 1×10^4 of spores/ml. […] The pH of the compositions was 4. A composition without natamycin or fluoxastrobin was used as control.
as §1, with “The treated mandarins were incubated in a closed box in the dark at 20° C. and assessed on mould growth after 10, 15, 19, 22 and 27 days of incubation. The antifungal activity (in %) of the individual active ingredients was determined by calculating the reduction in mould growth observed on the mandarins treated with the antifungal composition in comparison to the mould growth on the mandarins treated with the control composition. The” for “The”
A composition without natamycin or trifloxystrobin was used as control. The antifungal activity (in %) of the individual and combined active ingredients on mandarins was assessed after 8, 10 and 19 days of incubation according to the method described in Example 9.

Botrytis cinerea = experiment: Treatment of wounded strawberries inoculated with Botrytis cinerea; details: 20° C.
Procedure: Twelve fresh, organic strawberries were used per treatment. Each strawberry was wounded with a 0.5 mm long cut and each wound was inoculated with 10 μl of a Botrytis cinerea suspension containing 1×10^5 of spores/ml. […] The antifungal composition also comprised 1.00% (w/w) methylhydroxyethylcellulose (MHEC), 0.40% (w/w) xanthan gum, 0.20% (w/w) anti-foaming agent, 0.30% (w/w) citric acid, 0.39% (w/w) lactic acid and 0.11% (w/w) potassium sorbate. The pH of the compositions was 4.
as §1, with “The treated strawberries were incubated in a closed box in the dark at 20° C. and assessed on mould growth after 4, 5, 7 and 8 days of incubation. […] The” for “The”, “effect. […]” for “effect.”

[1] = 21 days, 500 ppm natamycin, 1000 ppm fluoxastrobin or both
[2] = 27 days, 250 ppm natamycin, 500 ppm fluoxastrobin or both
[3] = 27 days, 500 ppm natamycin, 1000 ppm fluoxastrobin or both
[4] = 10 days, 500 ppm fluoxastrobin or both
[5] = 15 days, 500 ppm fluoxastrobin or both
[6] = 19 days, 500 ppm fluoxastrobin or both
[7] = 22 days, 500 ppm fluoxastrobin or both
[8] = 27 days, 500 ppm fluoxastrobin or both
[9] = 27 days, 500 ppm natamycin, 1000 ppm trifloxystrobin or both
[10] = 8 days, 400 ppm trifloxystrobin or both
[11] = 10 days, 400 ppm trifloxystrobin or both
[12] = 19 days, 400 ppm trifloxystrobin or both
[13] = 3 days, 50 ppm natamycin, 250 ppm trifloxystrobin or both
[14] = 5 days, 50 ppm natamycin, 250 ppm trifloxystrobin or both
[15] = 5 days, 250 ppm natamycin, 500 ppm trifloxystrobin or both
[16] = 5 days, 500 ppm natamycin, 1000 ppm trifloxystrobin or both
[17] = 7 days, 250 ppm natamycin, 500 ppm trifloxystrobin or both
[18] = 7 days, 500 ppm natamycin, 1000 ppm trifloxystrobin or both
[19] = 8 days, 250 ppm natamycin, 500 ppm trifloxystrobin or both
[20] = 8 days, 500 ppm natamycin, 1000 ppm trifloxystrobin or both
[21] = 9 days, 250 ppm natamycin, 500 ppm trifloxystrobin or both

Compound	Number of moulded wounds/total number of 12 wounds (Fusarium proliferatum; [1])	Observed antifungal activity O (%) (Fusarium proliferatum; [1])	Observed antifungal activity O (%) (Fusarium proliferatum; [2])	Number of moulded wounds/total number of 12 wounds (Fusarium proliferatum; [3])	Observed antifungal activity O (%) (Fusarium proliferatum; [3])	Observed antifungal activity O (%) (Penicillium italicum; [4])	Observed antifungal activity O (%) (Penicillium italicum; [5])	Observed antifungal activity O (%) (Penicillium italicum; [6])	Observed antifungal activity O (%) (Penicillium italicum; [7])	Observed antifungal activity O (%) (Penicillium italicum; [8])	Number of moulded wounds/total number of 12 wounds (Fusarium proliferatum; [9])	Observed antifungal activity O (%) (Fusarium proliferatum; [9])	Observed antifungal activity O (%) (Penicillium italicum; [10])	Observed antifungal activity O (%) (Penicillium italicum; [11])	Observed antifungal activity O (%) (Penicillium italicum; [12])	Observed antifungal activity O (%) (Botrytis cinerea; [13])	Observed antifungal activity O (%) (Botrytis cinerea; [14])	Number of moulded strawberries/total number of 12 strawberries (Botrytis cinerea; [15])	Number of moulded strawberries/total number of 12 strawberries (Botrytis cinerea; [16])	Observed antifungal activity O (%) (Botrytis cinerea; [16])	other results
CO/N=C(/C1=NOCCO1)c1ccccc1Oc1ncnc(Oc2ccccc2Cl)c1F [Fluoxastrobin, fluoxastrobin]	10 and 10/12	42%	31%	12 and 12/12	7%	28%	24%	6%	4%	0%	–	–	–	–	–	–	–	–	–	–	–
CON=C(C(=O)OC)c1ccccc1CON=C(C)c1cccc(C(F)(F)F)c1 [Trifloxystrobin, trifloxystrobin]	–	–	–	–	–	–	–	–	–	–	10 and 10/12	75%	61%	42%	0%	50%	7%	12 and 12/12	12 and 12/12	0%	Observed antifungal activity O (%) (Botrytis cinerea; [17]): 0%; Observed antifungal activity O (%) (Botrytis cinerea; [18]): 6%; Observed antifungal activity O (%) (Botrytis cinerea; [19]): 0%; Observed antifungal activity O (%) (Botrytis cinerea; [20]): 6%; Observed antifungal activity O (%) (Botrytis cinerea; [21]): 0%
natamycin	6 and 6/12	78%	4%	12 and 12/12	63%	54%	19%	5%	5%	5%	12 and 12/12	63%	83%	54%	5%	64%	17%	12 and 12/12	12 and 12/12	31%	Observed antifungal activity O (%) (Botrytis cinerea; [17]): 10%; Observed antifungal activity O (%) (Botrytis cinerea; [18]): 13%; Observed antifungal activity O (%) (Botrytis cinerea; [19]): 2%; Observed antifungal activity O (%) (Botrytis cinerea; [20]): 0%; Observed antifungal activity O (%) (Botrytis cinerea; [21]): 0%
